The results in this text go back to PMC3466219 (PLoS ONE, 2012).

In experiment [1] the test system is acetylated histone H4K16, H3K14 and H4K8 in LNCaP cells. The experiment in a line: Western blotting of histone acetylation in LNCaP cells. The conditions noted are these: Western blot. Background: A western blot detects proteins with antibodies after separation by electrophoresis.
Experiment [2] relates to Tip60 levels in LNCaP cells. In kind it is cell-based. The conditions noted are these: increasing concentrations, 24 hours, Western blot. An excerpt:
Representative blots are shown for duplicate experiments.

In experiment [3] the target is Tip60 (Homo sapiens, UniProt Q92993). The experiment in a line: In vitro HAT assay, Tip60. The conditions noted are these: for inhibition at 100 µM: read-out: Tip60 % inhibition at 100 µM; for Tip60 inhibitory activity (in words): in vitro HAT assay.
Sequence of Tip60 (Q92993 whole entry): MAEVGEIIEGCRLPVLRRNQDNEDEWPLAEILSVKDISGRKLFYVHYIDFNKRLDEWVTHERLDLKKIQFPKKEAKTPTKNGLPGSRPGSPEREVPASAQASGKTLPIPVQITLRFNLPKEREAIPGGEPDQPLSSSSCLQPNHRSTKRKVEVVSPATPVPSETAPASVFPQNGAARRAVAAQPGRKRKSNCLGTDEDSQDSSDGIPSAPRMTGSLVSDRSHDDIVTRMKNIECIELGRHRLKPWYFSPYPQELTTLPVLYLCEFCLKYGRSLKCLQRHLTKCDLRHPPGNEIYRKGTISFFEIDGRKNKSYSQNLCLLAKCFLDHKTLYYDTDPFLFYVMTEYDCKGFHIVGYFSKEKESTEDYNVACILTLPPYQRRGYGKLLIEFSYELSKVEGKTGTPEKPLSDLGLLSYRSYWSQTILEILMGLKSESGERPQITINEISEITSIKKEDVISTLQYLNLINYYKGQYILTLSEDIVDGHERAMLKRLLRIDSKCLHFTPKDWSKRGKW
The target in experiment [4] is GCN5 (Homo sapiens, UniProt Q92830). In words: In vitro HAT assay, GCN5. Type of experiment: biochemical. How it is done: (§1) Assays were performed in quadruplicate.
Sequence of GCN5 (Q92830 whole entry, species assumed): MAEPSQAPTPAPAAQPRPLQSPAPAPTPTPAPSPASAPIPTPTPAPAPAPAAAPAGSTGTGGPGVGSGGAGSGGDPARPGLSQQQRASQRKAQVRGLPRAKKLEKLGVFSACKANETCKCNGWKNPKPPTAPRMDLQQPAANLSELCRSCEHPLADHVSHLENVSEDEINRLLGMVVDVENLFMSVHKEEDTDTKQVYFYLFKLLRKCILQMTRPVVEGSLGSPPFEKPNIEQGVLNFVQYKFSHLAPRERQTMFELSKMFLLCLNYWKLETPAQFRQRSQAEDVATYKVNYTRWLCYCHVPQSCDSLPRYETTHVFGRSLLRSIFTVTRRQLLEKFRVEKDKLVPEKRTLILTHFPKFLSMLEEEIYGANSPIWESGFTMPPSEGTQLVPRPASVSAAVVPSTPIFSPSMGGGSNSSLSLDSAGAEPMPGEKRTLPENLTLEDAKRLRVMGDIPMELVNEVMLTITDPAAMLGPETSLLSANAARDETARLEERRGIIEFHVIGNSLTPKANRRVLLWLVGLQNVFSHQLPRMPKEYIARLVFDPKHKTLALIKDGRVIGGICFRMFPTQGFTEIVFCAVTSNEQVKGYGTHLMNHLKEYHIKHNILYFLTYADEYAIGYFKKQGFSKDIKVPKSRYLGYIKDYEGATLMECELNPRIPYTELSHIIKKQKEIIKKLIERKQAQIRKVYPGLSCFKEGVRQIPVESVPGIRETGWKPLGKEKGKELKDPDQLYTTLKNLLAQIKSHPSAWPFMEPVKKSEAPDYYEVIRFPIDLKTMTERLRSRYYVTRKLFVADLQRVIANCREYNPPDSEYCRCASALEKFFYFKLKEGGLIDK
In experiment [5] the target is T1, p300 (Homo sapiens, UniProt Q09472).
T1 sequence (Q09472 1287-1663 limits assumed): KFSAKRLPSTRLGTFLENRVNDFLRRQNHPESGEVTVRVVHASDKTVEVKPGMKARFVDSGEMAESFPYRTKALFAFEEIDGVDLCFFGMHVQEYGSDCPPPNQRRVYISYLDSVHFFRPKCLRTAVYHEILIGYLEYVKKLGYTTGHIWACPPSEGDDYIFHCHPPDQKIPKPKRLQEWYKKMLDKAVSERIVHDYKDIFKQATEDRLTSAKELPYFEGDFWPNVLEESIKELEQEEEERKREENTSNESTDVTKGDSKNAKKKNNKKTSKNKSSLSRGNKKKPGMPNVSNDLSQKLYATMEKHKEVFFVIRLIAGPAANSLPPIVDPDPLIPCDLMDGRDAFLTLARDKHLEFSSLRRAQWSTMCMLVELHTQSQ
The experiment in a line: In vitro HAT assay, p300. In kind it is biochemical. The conditions noted are these: individual IC50 values. As for the experimental part:
as §1
(§2) Purification of recombinant HAT enzymes (GST-tagged)- Expression constructs, pGEX-p300 and pGEX-PCAF, obtained from Dr Andrew Bannister (Cambridge Cancer Centre, UK), were transformed into XA90 Escherichia coli cells. A single colony was selected and grown to an OD 0.5 IPTG (1 mM) induction was carried out for 4 hours then cell pellets were collected, lysed, and sonicated. Supernatants were then passed through glutathione Sepharose 4B (GE Healthcare) and purified protein was eluted with 50 mM Tris-HCl, 10 mM reduced glutathione, pH 8. Eluted fractions were tested for enzymatic activity by HAT assay.

Experiment [6] concerns the target T2, PCAF (Homo sapiens, UniProt Q92831).
T2 construct: GST; made in house; host or cells: XA90 Escherichia coli
In words: In vitro HAT assay, PCAF. Type of experiment: biochemical. The conditions noted are these: individual IC50 values. As for the experimental part: as §1, §2

Values joined by “and” are separate entries in the source; they are usually repeats but may differ in a detail not shown here. Equal values may be shown once. Read-outs that look alike come from different tables or passages of the source.

T2 sequence (Q92831 whole entry, species assumed): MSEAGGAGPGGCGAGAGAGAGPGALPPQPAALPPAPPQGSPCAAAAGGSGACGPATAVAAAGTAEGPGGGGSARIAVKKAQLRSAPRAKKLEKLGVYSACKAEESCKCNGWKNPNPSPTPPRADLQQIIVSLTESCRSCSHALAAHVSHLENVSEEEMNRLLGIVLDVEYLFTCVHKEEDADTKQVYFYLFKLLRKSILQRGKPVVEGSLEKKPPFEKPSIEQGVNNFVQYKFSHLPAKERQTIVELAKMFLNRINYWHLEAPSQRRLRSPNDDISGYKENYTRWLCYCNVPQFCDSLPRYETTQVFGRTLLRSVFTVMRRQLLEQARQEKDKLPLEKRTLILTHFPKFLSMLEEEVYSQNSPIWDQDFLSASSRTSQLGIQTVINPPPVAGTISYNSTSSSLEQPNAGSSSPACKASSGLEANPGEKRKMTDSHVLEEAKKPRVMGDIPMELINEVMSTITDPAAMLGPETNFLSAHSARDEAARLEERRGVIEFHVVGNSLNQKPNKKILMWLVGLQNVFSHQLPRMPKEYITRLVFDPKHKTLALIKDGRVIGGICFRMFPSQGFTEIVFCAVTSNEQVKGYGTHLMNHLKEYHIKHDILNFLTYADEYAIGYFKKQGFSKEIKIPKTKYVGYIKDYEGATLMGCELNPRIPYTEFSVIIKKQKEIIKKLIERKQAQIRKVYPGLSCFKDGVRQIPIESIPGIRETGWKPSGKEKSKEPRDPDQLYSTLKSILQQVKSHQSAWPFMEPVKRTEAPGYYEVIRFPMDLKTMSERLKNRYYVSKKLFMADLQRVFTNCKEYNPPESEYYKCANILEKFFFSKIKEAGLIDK

Regarding `c1cc(CCc2ccncc2)ccn1` [1,2-bis(4-pyridyl)ethane], in experiment [1] (increasing concentrations for 2 hours, then TSA 2 µM for a further 4 hours), the “levels of acetylated histone H4K16, H3K14 and H4K8” value is reported as “did not affect”. Also, the Tip60 levels result in experiment [2] is “unaffected”.
For the compound `c1ccc2sc(SSc3nc4ccccc4s3)nc2c1` [2,2′-Dithio(bis)benzothiazole], in experiment [3], the inhibition – broadly, the share of the control response that was lost under treatment – at 100 µM was 25%.
Regarding `c1ccc(SSc2ccccn2)nc1` [2,2′-Dithiodipyridine], the IC50 (commonly the concentration that gives 50% inhibition) in experiment [3] (Tip60 IC50, in vitro HAT assay, 3H acetyl-CoA, histones as substrates, individual IC50 values) was 62 µM and 87 µM.
With `Cc1ccsc1Br` [2-Bromo-3-methylthiophene], in experiment [3], the IC50 was above 100 µM and the “Tip60 inhibitory activity (in words)” value is “inactive”.
Compound `c1cc(SSc2ccncc2)ccn1` [4,4′-Dithiodipyridine] came in with an IC50 in experiment [3] of 48 µM.
For `Cc1cnsc1Br` [Compound 1, 4-Methyl-5-bromoisothiazole], in experiment [3], the “Tip60 inhibitory activity (in words)” value is “inactive” and the inhibition at 100 µM is 14%.
Turning to `Cc1cnsc1SC#N` [Compound 4, 4-Methyl-5-thiocyanatoisothiazole], the inhibition at 100 µM in experiment [3] came out at 46%.
As for `Cc1cnsc1SSc1sncc1C` [Compound 5, 1,2-Bis(4-methylisothiazol-5-yl)disulfane], the IC50 is above 100 µM in experiment [4]; 58 µM and 43 µM in experiment [5]; 33 µM and 25 µM in experiment [6]; 4 µM in experiment [3].
For `N#CSc1ccns1` [Compound 6, 5-Thiocyanatoisothiazole], the inhibition at 100 µM in experiment [3] was found to be 27%.
Regarding `Cc1cnsc1` [Compound 11, 4-Methylisothiazole], the inhibition at 100 µM in experiment [3] stood at 22%.
On the same count and under the same terms, for `c1ccc(SSc2ccccc2)cc1` [Diphenyl disulphide] the value was 4%.
In the case of `CC(/C=C/C(=O)NO)=C\[C@@H](C)C(=O)c1ccc(N(C)C)cc1` [TSA, trichostatin A], the “acetylation at H4K8, H4K16 and H3K14” value in experiment [1] (TSA alone 2 µM, 6 hours) is given as “acetylation was increased”.
